Data on six compounds can be found in patent US9994590B2, “Substituted [1,2,4]triazolo[1,5-a]pyrazines as phosphodiesterase inhibitors” (Sunovion Pharamaceuticals Inc., priority 2012, dated 2018).

The target of the test is recombinant human PDE-10 enzyme (human PDE-10A) (Homo sapiens (Human), UniProt Q9Y233). The test is described as follows: human PDE-10 inhibition assay (Molecular Devices IMAP PDE Fluorescence Polarization, enzyme assay IC50). It counts as biochemical. As to conditions: Fluorescein-labeled cAMP/cGMP substrate, 40-minute incubation at 37° C. As for the experimental part: In one embodiment, the compounds provided herein were assayed for their ability to inhibit human PDE-10A. In one embodiment, the activities of the compounds were determined using the Molecular Devices IMAP PDE Fluorescence Polarization assay using recombinant human PDE-10 enzyme expressed in a baculoviral system. Briefly, 10 μL of a compound (0.2 nM-20 μM) was added to either a 96-well half area black plate or a 384-well black plate along with 10 μL of Fluorescein-labeled cAMP/cGMP substrate as per manufacturer's instructions and 10 μL of PDE enzyme (activity 0.1 U). Following a 40-minute incubation at 37° C., 60 μL of IMAP binding reagent was added. The plate was then read on a Perkin Elmer Victor (480-535 nm). The data was analyzed using Prism Software (GraphPad Inc, San Diego, Calif.).
Sequence of recombinant human PDE-10 enzyme (human PDE-10A) (Q9Y233 whole entry): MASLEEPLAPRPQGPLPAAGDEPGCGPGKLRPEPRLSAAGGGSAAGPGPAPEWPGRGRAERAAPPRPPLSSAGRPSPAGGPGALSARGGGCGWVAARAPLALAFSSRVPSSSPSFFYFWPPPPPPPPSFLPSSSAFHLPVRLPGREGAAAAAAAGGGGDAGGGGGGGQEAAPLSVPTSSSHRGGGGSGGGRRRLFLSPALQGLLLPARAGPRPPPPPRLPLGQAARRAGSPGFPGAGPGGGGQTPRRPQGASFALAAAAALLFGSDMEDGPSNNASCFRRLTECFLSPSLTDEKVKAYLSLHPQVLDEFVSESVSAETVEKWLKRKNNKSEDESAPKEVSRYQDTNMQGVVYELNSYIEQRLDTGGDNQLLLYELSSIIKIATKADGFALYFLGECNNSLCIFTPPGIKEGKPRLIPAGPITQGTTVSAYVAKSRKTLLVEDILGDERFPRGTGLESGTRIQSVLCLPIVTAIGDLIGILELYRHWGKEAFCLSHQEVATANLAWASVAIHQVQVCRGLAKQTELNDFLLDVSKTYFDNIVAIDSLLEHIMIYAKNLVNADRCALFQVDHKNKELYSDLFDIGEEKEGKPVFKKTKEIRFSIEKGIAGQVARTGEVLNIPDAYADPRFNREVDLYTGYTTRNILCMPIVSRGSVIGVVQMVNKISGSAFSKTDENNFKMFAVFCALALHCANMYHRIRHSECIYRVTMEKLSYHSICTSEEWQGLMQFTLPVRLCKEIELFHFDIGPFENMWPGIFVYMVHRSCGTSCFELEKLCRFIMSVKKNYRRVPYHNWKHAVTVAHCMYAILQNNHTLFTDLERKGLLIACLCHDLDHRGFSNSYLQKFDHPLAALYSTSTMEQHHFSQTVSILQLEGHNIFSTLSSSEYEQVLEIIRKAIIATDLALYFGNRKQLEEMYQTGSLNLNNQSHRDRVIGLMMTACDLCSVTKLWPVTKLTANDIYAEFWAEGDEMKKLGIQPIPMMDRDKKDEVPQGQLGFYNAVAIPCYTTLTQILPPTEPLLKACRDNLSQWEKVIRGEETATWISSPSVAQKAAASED
(Fluorescence polarisation rises when a labelled molecule tumbles more slowly, as on binding a larger partner.)
Regarding `Cc1ncc(C)n2nc([C@H]3C[C@@H]3c3nc4c5cccnc5ccc4n3C)nc12` [Compound 28], the IC50 is 100 to 500 nM.
With `Cc1ncc(C)n2nc(C3CCC3c3cn4ccc5c(c4n3)OCCO5)nc12` (racemic) [Compound 38, (±)-9-(2-(5,8-dimethyl-[1,2,4]triazolo[1,5-a]pyrazin-2-yl)cyclobutyl)-2,3-dihydro-[1,4]dioxino[2,3-c]imidazo[1,2-a]pyridine], the IC50 lay in the range of 100 to 500 nM.
Regarding `Cn1c([C@@H]2C[C@H]2c2ccc3ccccc3n2)nc2c3cccnc3ccc21` (single isomer, unassigned) [Compound 22], the IC50 lay in the range of 100 to 500 nM.
In the case of `Cn1c(C2CCC2c2nc3c4cccnc4ccc3n2C)nc2c3cccnc3ccc21` (stereo not drawn) [Compound 25, 1,2-Bis(3-methyl-3H-imidazo[4,5-f]quinolin-2-yl)cyclobutane] it was > 500 nM; in that of `Cn1c([C@H]2C[C@@H]2c2ccc3ccccc3n2)nc2c3cccnc3ccc21` (single isomer, unassigned) [Compound 21], 10 to 100 nM; in that of `COc1cc(C)cn2c(C)c(C3CC3c3nc4c(C)ncc(C)n4n3)nc12` (racemic) [Compound 36, (±)-2-(2-(8-methoxy-3,6-dimethylimidazo[1,2-a]pyridin-2-yl)cyclopropyl)-5,8-dimethyl-[1,2,4]triazolo[1,5-a]pyrazine], 10 to 100 nM.

The term IC50 denotes the point on the concentration scale where inhibition reaches its midpoint.
